The values that follow come from US10934250B2, “Process for the preparation of a chelating agent” (TRADE CORPORATION INTERNATIONAL, S.A. UNIPERSONAL, priority 2015, dated 2021).

The series is described as follows: Stability constants of Fe3+ chelates by spectrophotometric titration. It is filed as physicochemical. As to conditions: for Stability constant, L + H^+ + Fe^3+ -> FeHL / Stability constant, L + Fe^3+ -> FeL / Stability constant, L + OH^- + Fe^3+ -> FeOHL: chelant agent:Fe^3+ 1:1, I=0.10M (NaCl), titration with 0.1 M NaOH pH 2.7 to 12.0, absorbance at 480 nm; for Stability constant, L + H^+ + Fe^3+ -> FeHL: FeHL predominant at pH <4.0; for Stability constant, L + Fe^3+ -> FeL: FeL predominant at pH 4 to 6.5; for Stability constant, L + OH^- + Fe^3+ -> FeOHL: FeOHL predominant at pH >6.5. On the procedure:
Stability constant of the Fe^3+ chelate compound of Example 4 (CRENEAHA) were determined spectrophotometrically by titration of a 2.22·10^−4 M (12.5 mg/L) and I=0.10M (NaCl) with 0.1 M NaOH from a pH of 2.7 to a pH of 12.0 and measuring the absorbance variation at 480 nm.
Stability constant of the Fe^3+ chelate compound of Example 2 (CREMEAHA) were determined spectrophotometrically by titration of a […] (12.5 mg/L) and I=0.10M (NaCl) with 0.1 M NaOH from a pH of 2.7 to a pH of 12.0 and measuring the absorbance variation at 480 nm.
Stability constants were determined minimizing the difference between calculated absorbance and experimental absorbance by varying the stability constants of Fe^3+. Every assay was repeated four times. The stability constant value for each compound is not dependent on the concentration of the solution used to carry out the spectrophotometric titration.

On to `Cc1ccc(O)c(C(NCCO)C(=O)O)c1` (stereo not shown) [CREMEAHA], for which the “Stability constant, L + H^+ + Fe^3+ -> FeHL” value came out at 33.9; the “Stability constant, L + Fe^3+ -> FeL” value is reported as 28.6; the “Stability constant, L + OH^- + Fe^3+ -> FeOHL” value is 21.2.

For `Cc1ccc(O)c(C(NCCNCCO)C(=O)O)c1` (stereo not shown) [CRENEAHA], the “Stability constant, L + H^+ + Fe^3+ -> FeHL” value was 37.5; the “Stability constant, L + Fe^3+ -> FeL” value worked out at 33.4; the “Stability constant, L + OH^- + Fe^3+ -> FeOHL” value worked out at 26.9. Where the note is “particularly at high pH”, the “Stability of the Fe^3+ chelate compared with the Fe^3+ chelate of Example 2 (CREMEAHA)” value is listed as “better stability”.
